Experimental data taken from patent publication US5177015A, “Onco-developmentally regulated α-N-acetylgalactosaminyltransferase” (Fred Hutchinson Cancer Research Centre, priority 1992, dated 1993).
Ends that are not written are not given here.

What was measured:
[1] = system: onco-developmentally regulated α-N-acetylgalactosaminyltransferase (hepatoma cell homogenate); assay: Effect of UDP-GalNAc concentration (Hanes-Woolf plot of saturation data); format: biochemical, human; conditions: UDP-GalNAc 0.6 μM to 200 μM, 200 nmol TPI, read-out: apparent Km for UDP-GalNAc
Protocol: B. Effect of UDP-GalNAc concentration. A Hanes-Woolf plot of saturation data was obtained by varying UDP-GalNAc concentration from 0.6 μM to 200 μM. The reaction was conducted as described in Example 2 in the presence of 100 mg protein and 200 nmol TPI. The specific activity of UDP[^3 H]-GalNAc utilized was 4×10^6 cpm/nmol.
The apparent Km for UDP-GalNAc can be determined by generating a Hanes-Woolf plot of saturation data obtained by varying the UDP-GalNAc concentration at a constant cellular or tissue protein concentration and a constant substrate concentration. A preferred substrate for this assay is TPI.
A Hanes-Woolf plot of saturation data was obtained by varying UDP-GalNAc concentration from 0.6 μM to 200 μM. The reaction as conducted as described in Example 1 in the presence of 100 mg protein of hepatoma cell homogenate and 200 nmol TPI. The specific activity of the UDP[^3 H]-GalNAc used was 4×10^6 cpm/nmol. The reacted samples were also treated as described in Example 1.

[2] = system: onco-developmentally regulated α-N-acetylgalactosaminyltransferase; assay: Solubilization of the enzyme with detergents; format: biochemical, human
Source text: The particulate membrane fraction can be prepared according to the method of Holmes, E. H. et al. ((1985) J. Biol. Chem. 260, 7619-7627).

[3] = system: α-N-acetylgalactosaminyltransferase in crude homogenates of human hepatoma cells (HUH-7); assay: Specific activity of α-N-acetylgalactosaminyltransferase toward various acceptors; format: biochemical; conditions: 200 nmol acceptor, HUH-7 homogenate, 25 mM Tris, 10 mM MgCl2, 1 mM CaCl2, pH 7.6, 2 hrs at 37° C., FDC-6 immunoaffinity
Protocol: 8×10^7 hepatoma cells (HUH-7) cultured in serum-free medium (Dulbecco-Modified Eagles Medium) were homogenized in a Potter-Elvehjem homogenizer with 200 μl of distilled water. 300 μl of tris buffer solution, consisting of 25 mM tris, 10 mM MgCl2 and 1 mM CaCl2, pH 7.6, was added. 0.3 nmol UDP[^3 H]-GalNAc (specific activity 8.7 Ci/mmol, New England Nuclear Research Product) and 25 nmol UDP-GalNAc were added and incubated for 2 hrs at 37° C. The incubation mixture was centrifuged at 10,000 rpm for 30 min. Supernatant was applied onto a 0.5 ml Sepharose 4B precolumn, followed by a 0.5 ml FDC-6 immunoaffinity column containing 10 mg of purified FDC-6 antibody/ml as described by Matsuura, H. et al. ((1988) J. Biol. Chem. 263, 3314-3322). Immunoprecipitation using 200 μl of FDC-6 binding Sepharose 4B was also performed as described by Bigler R. D. et al ((1988) J. Immunol. 144 21). Supernatants were incubated for 1 hr at 20° C. The column or immunoprecipitate was washed with 1M NaCl in 50 mM Tris buffer, pH 7.4, and eluted with 2.5M potassium thiocyanate in the same buffer solution. The eluate and washings were pooled and aliquots were counted. The same incubation mixture without addition of synthetic peptides or FN was used as a control.

[4] = system: onco-developmentally regulated α-N-acetylgalactosaminyltransferase (HUH-7 homogenate); assay: Variation of incubation time (kinetics of α-GalNAc transfer to synthetic peptide); format: biochemical, human; conditions: 200 nmol TPI, Tris pH 7.6, 37°, incubated 10 min. to 24 hours
Protocol: C. Variation of incubation time. The standard reaction mixture described in Example 1 using TPI was incubated for 10 min to 24 hr. open circles, with TPI; closed circles, without TPI (control).
In order to determine the kinetics of α-GalNAc transfer to synthetic peptide, a reaction mixture containing 12.5 μmol Tris, pH 7.6, 200 nmol TPI, 0.3 nmol UDP[^3 H]-GalNAc, 25 nmol UDP-GalNAc, 5 μmol MgCl2, 0.5 μmol CaCl2 and homogenized hepatoma cells (HUH-7) was incubated for 10 min. to 24 hours at 37°. A parallel control was run without TPI. At the end of the incubation periods, the samples were treated as described in Example 1.

[5] = system: onco-developmentally regulated α-N-acetylgalactosaminyltransferase (HUH-7 homogenate); conditions: 1 mM EDTA, 25 mM Tris buffer, pH 7.6
Protocol: In the present case, the requirement for metal ion for the onco-developmentally regulated α-N-acetylgalactosaminyltransferase was determined in 25 mM Tris buffer, pH 7.6, supplemented with 20 mM MnCl2, 10 mM MgCl2, 1 mM CaCl2 and combinations of two of these or 1 mM EDTA.
Hepatoma cell (HUH-7) homogenates and the synthetic and natural peptides set forth in the Table in Example 1 were prepared as in Example 1 and incubated as described in Example 1 using 25 mM Tris buffer, pH 7.6; supplemented with 20 mM MnCl2, 10 mM MgCl2, 1 mM CaCl2 and combinations of two of these or 1 mM EDTA.

## CC(=O)NC1C(OP(=O)(O)OP(=O)(O)OCC2OC(n3ccc(=O)[nH]c3=O)C(O)C2O)OC(CO)C(O)C1O (centres unmarked) [UDP-GalNAc]
[1]
  Km: ~48 µM

## Triton X-100
[2]
  Effect of solubilization with detergent on enzyme activity: does not enhance enzyme activity

## C[C@H](CCC(=O)NCCC[N+](C)(C)CC(O)CS(=O)(=O)[O-])[C@H]1CC[C@H]2[C@@H]3[C@H](O)C[C@@H]4C[C@H](O)CC[C@]4(C)[C@H]3C[C@H](O)[C@]12C (some centres unmarked) [CHAPSO, 3-(3-cholamidopropyldimethylammonio)-1-(20-hydroxy-1-propanesulfonate)]
[2]
  Effect of solubilization with detergent on enzyme activity: does not enhance enzyme activity

## thr-pro-phe-val-thr-his-pro-gly-tyr-asp-thr-gly-asn-gly-ile (TPFVTHPGYDTGNGI) [TPI]
[3]
  Activity (specific activity of the enzyme to the acceptor): 0.11 pmol/hr/mg protein
[4]
  Time over which α-GalNAc transfer to synthetic peptide is linear: about 2 hours

## VTHPGY [VTY, val-thr-his-pro-gly-tyr]
[3]
  Activity (specific activity of the enzyme to the acceptor): 0.03 pmol/hr/mg protein

## O=C(O)CN(CCN(CC(=O)O)CC(=O)O)CC(=O)O [EDTA]
[5]
  Enzyme activity in the presence of EDTA: totally abolished

## thr-pro-phe-val-thr-his-pro-gly-tyr-asp-thr-gly-asn-gly-ile-gln-leu-pro-gly-thr-ser-gly-gln-gln-pro-ser-val-gly-gln-gln (TPFVTHPGYDTGNGIQLPGTSGQQPSVGQQ) [TPQ]
[3]
  Activity (specific activity of the enzyme to the acceptor): 0.06 pmol/hr/mg protein
